Measured values: US11229633B2, “Arimoclomol formulation” (Orphazyme A/S, priority 2014, dated 2022)

Target: T1, human OAT3 (Homo sapiens, UniProt Q8TCC7)
T1 construct: expressed in transfected cells; host or cells: MDCKII (protocol UPT-MDCKII-OAT3-E3S; control: parental MDCKII)
T1 sequence (Q8TCC7 1-542): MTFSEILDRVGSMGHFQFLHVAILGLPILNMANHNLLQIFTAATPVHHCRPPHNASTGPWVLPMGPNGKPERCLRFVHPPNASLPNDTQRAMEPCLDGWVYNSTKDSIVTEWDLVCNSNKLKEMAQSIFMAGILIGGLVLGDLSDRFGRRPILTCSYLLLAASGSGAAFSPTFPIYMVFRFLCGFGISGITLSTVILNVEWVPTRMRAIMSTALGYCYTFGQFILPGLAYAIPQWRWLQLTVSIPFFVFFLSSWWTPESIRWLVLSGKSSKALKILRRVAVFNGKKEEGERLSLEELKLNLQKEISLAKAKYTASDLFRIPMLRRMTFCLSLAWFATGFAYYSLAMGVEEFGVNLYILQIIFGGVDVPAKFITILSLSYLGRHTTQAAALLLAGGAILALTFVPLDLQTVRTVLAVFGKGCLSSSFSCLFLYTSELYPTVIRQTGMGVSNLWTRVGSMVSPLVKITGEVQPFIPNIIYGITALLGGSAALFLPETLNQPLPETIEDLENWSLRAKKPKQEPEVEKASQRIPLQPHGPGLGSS
Experiment: Uptake transporter substrate feasibility assay, OAT3
Assay type: in vitro ADME
Design: key to Substrate: NIO: No interaction observed
Method: Uptake experiments were performed using CHO, MDCKII, or HEK293 cells stably expressing the respective uptake transporters.
Cells were cultured at 37±1° C. in an atmosphere of 95:5 air:CO2 as described in Table 4 and were plated onto standard 24-well tissue culture plates at 2×10^5 cells/well. The uptake of the TA was determined using cells overexpressing the respective uptake transporter and control cells, at two incubation time points (2 and 20 min) and at two concentrations (1 and 10 μM) of TA to determine whether or not the TA was actively taken up into the cells.
Before the experiment, the medium was removed and the cells were washed twice with 300 μl of HK buffer (pH 7.4) (prepared from Sigma chemicals). Cellular uptake of TA into the cells was measured by adding 300 μl of HK buffer containing TA and incubating them at 37±1° C. Reactions were quenched by removing the HK buffer containing the TA and the cells were washed twice with 300 μl of HK buffer. Cells were lysed by adding 300 μl of MeOH:H2O (2:1) and incubated for 20 minutes at 4±1° C. The amount of TA in the cell lysate was determined by LC-MS/MS. The amount of protein in each well was quantified using the BCA kit for protein determination (Sigma-Aldrich, St Louis, Mo., USA). Uptake of the probe substrate in control cells provided background activity values for all data points. Incubation without reference inhibitor (solvent only) provided 100% activity values. A reference inhibitor served as positive control for inhibition.
The fold accumulation value was defined as the ratio of uptake of TA or probe substrate into transfected and control cells:
[formula] UPTTRP: accumulated amount of TA or probe substrate in transfected cells normalized by protein content [pmol/mg protein] UPTCTL: accumulated amount of TA or probe substrate in control cells normalized by protein content [pmol/mg protein]
If the fold accumulation is >2 and can be inhibited by a known inhibitor of the transporter, the TA can be considered to be a substrate of the respective transporter.

For [O-][n+]1cccc(C(Cl)=NOCC(O)CN2CCCCC2)c1 (stereo not shown) [Arimoclomol, N-[2-hydroxy-3-(1-piperidinyl)-propoxy]-pyridine-1-oxide-3-carboximidoyl chloride], the “Substrate of the transporter (in words)” value was “not a substrate”, the Fold accumulation (1 μM, 2 min) was 0.86 and the Fold accumulation (1 μM, 20 min) was 0.86. It also gave a Fold accumulation (10 μM, 2 min) of 0.85, a Fold accumulation (10 μM, 20 min) of 0.82 and a Fold accumulation (1 and 10 μM, 2 and 20 min) of under 2. For the same compound, the Substrate (Table 2) was “NIO”.
